Results taken from patent US9772337B2, “Compositions and methods for functional gylcomics” (Emory University, priority 2010, dated 2017).

Test system: anti-GD1a antibody
Experiment: BBG GSL-AOAB shotgun microarray binding assay with anti-GD1a antibody
Conditions: fractions printed at 10 μM on NHS-slides

- binding of anti-GD1a antibody to BBG GSL-AOAB fractions: primarily bound
Substance: Neu5Acα2-3Galβ1-3GalNAcβ1-4(Neu5Acα2-3)Galβ1-4Glcβ1-R [GD1a-AOAB]
